Reference: US5656638A, “Telomerase inhibitors” (Geron Corporation, priority 1995, dated 1997)
Entries after “also recorded” stand apart in the source; their conditions may differ. Like-named read-outs stand apart in the source and are kept apart here.

Target: T1, telomerase (Homo sapiens, UniProt O14746)
T1 construct: placing cells, tissues, or preferably a cellular extract or other preparation containing telomerase in contact with; endogenous in cells
Test: telomerase inhibition, IC50 (Table 1)
Assay type: biochemical
From the text: One method used to identify compounds of the invention that inhibit telomerase activity involves placing cells, tissues, or preferably a cellular extract or other preparation containing telomerase in contact with several known concentrations of a test compound in a buffer compatible with telomerase activity. […] Other methods for determining the inhibitory concentration of a compound of the invention against telomerase can be employed as will be apparent to those of skill in the art based on the disclosure herein.
With the above-described methods, IC50 values for several of the compounds of the present invention were determined. The values reported in Table 1 below are only approximate values; more exact IC50 values can be obtained by repetitive testing.

[1] = Table 1, approximate values only, read-out: IC50
[2] = summary of Table 1, approximate IC50 values, read-out: IC50 (bound stated in text)

T1 sequence (O14746 whole entry): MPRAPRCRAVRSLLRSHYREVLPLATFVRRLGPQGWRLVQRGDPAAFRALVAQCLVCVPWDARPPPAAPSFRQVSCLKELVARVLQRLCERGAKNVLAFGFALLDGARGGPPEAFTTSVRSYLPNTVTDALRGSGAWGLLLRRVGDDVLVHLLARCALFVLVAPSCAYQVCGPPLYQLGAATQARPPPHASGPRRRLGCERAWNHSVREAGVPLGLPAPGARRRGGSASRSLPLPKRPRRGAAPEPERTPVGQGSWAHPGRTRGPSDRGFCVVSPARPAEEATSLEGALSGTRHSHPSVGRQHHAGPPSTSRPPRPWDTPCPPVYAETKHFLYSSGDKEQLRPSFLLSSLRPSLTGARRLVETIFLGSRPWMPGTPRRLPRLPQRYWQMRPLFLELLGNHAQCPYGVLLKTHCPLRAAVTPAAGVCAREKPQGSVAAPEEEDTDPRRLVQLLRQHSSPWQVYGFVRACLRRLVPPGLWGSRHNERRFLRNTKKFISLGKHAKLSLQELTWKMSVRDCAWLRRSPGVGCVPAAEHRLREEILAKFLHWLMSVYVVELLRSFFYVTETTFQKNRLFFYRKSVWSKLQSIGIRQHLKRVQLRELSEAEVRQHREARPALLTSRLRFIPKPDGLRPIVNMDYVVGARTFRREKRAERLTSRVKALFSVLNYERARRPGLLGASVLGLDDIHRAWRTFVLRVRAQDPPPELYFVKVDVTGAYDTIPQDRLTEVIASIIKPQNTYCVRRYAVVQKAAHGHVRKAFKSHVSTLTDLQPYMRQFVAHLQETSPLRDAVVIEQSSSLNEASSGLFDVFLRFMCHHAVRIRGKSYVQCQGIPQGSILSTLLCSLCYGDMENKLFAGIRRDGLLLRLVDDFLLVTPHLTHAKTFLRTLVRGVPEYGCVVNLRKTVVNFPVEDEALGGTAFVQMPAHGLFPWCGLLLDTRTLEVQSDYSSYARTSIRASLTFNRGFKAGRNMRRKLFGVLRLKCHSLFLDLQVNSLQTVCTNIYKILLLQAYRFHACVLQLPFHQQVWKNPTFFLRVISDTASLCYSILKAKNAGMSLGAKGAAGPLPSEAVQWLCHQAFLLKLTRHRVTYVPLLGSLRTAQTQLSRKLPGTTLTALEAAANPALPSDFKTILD
T1 sequence (O60832 whole entry partner): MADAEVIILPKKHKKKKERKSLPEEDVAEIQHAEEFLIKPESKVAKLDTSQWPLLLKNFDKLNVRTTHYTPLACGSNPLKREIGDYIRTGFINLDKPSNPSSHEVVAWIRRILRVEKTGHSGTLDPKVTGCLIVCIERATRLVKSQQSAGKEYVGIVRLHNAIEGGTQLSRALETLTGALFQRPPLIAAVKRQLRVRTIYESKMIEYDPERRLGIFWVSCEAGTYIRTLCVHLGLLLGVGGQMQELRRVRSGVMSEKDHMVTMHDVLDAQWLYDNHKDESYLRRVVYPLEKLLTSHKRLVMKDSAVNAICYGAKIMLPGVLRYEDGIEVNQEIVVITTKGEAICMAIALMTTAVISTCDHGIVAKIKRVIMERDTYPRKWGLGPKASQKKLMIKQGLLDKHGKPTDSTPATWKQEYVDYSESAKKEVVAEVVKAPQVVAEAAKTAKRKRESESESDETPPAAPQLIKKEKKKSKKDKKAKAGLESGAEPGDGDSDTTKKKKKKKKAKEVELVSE
T1 sequence (Q9NPE3 whole entry partner): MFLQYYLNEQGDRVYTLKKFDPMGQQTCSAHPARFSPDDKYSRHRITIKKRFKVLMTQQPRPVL
T1 sequence (Q9NX24 whole entry partner): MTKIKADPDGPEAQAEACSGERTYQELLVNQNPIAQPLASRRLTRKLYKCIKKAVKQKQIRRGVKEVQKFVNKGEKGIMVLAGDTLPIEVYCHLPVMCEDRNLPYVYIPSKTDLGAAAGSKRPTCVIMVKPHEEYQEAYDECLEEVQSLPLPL
T1 sequence (Q9NY12 whole entry partner): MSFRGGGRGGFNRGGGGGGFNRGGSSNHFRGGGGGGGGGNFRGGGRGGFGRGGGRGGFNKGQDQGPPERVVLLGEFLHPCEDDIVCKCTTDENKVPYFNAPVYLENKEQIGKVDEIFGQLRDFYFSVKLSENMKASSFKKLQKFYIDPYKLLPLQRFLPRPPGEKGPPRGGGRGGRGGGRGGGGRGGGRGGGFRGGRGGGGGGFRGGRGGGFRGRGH

Row | SMILES | anti-telomerase activity (in words) | IC50 [1] [µM] | IC50 [2] [µM]
1 | Nc1c(C(=O)c2ccc(Cl)c(Cl)c2)sc2nc(C=O)ccc12 [Compound VIII] | particularly good anti-telomerase activity; also recorded: strong telomerase inhibitors | 28 | < 30
2 | Nc1c(C(=O)c2ccc(Br)cc2)sc2nc(C=O)ccc12 [Compound VII] | particularly good anti-telomerase activity | 48 | 
3 | Nc1c(C(=O)c2ccc(Cl)cc2Cl)sc2nc(C=O)ccc12 [Compound VI] | particularly good anti-telomerase activity; also recorded: strong telomerase inhibitors | 29 | < 30
4 | Nc1c(C(=O)c2ccc(Cl)c(Cl)c2)sc2nc(C=NC3C4CC5CC(C4)CC3C5)ccc12 (centres unmarked) [Compound V] | strong telomerase inhibitors | 30 | < 30
5 | Nc1c(C(=O)c2ccc(Cl)c(Cl)c2)sc2nc(C=NNc3ccc(Cl)cc3)ccc12 [Compound XII] | good anti-telomerase activity; also recorded: strong telomerase inhibitors | 21 | < 30
6 | Nc1c(C(=O)c2ccc(Cl)c(Cl)c2)oc2nc(C=O)ccc12 [Compound XIV] |  | 31 | 
7 | Nc1c(C(=O)c2ccc(Cl)c(Cl)c2)sc2nc(C=NNc3ccccc3)ccc12 [Compound XI] | good anti-telomerase activity | 42 | 
8 | Cc1cc(N=Cc2ccc3c(N)c(-c4ccc(Cl)c(Cl)c4)oc3n2)n[nH]1 [Compound XV] | good anti-telomerase activity | 49 | 
9 | CC(C)(C)c1ccc(-c2noc(-c3sc4nc(C=O)ccc4c3N)n2)cc1 [Compound X] |  | 42 | 

Results, then the compound that gave them:

Row | anti-telomerase activity (in words) | IC50 [1] [µM] | IC50 [2] [µM] | SMILES
10 |  | 26 |  | Nc1c(C(=O)c2ccc(Cl)cc2Cl)sc2nc(C=NC3C4CC5CC(C4)CC3C5)ccc12 (centres unmarked) [Compound IV]
11 | strong telomerase inhibitors | 24 | < 30 | Nc1c(-c2ncc(C(F)(F)F)cc2Cl)sc2nc(C=O)ccc12 [Compound IX]
12 | good anti-telomerase activity | 18 |  | Cc1ccc(NN=Cc2ccc3c(N)c(C(=O)c4ccc(Br)cc4)sc3n2)cc1 [Compound XIII]
13 | strong telomerase inhibitors | 4 | < 30 | Nc1c(C(=O)c2ccc(Br)cc2)sc2nc(C=NC3C4CC5CC(C4)CC3C5)ccc12 (centres unmarked) [Compound III]
